Data on 17 molecules can be found in patent US9125913B2, “Bcl-2-selective apoptosis-inducing agents for the treatment of cancer and immune diseases” (AbbVie Inc., priority 2008, dated 2015).

The subject of assay [1] is FL5.12/Bcl-2 cells. Nature of the assay: FL5.12/Bcl-2 cell viability assay. In kind it is cell-based, murine. As to conditions: ratio of canine platelet EC50 to FL5.12/Bcl-2 EC50. Put shortly:
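Murine IL-3-dependent FL5.12 cells stably overexpressing Bcl-2 were deprived of IL-3 (WEHI-3B conditioned medium) for 48 h, then exposed to various compound concentrations for 24 h at 37 °C. Viability read by CellTiter-Glo luminescence.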

Assay [2] concerns GST-Bcl-2. Nature of the assay: TR-FRET binding assay, Bcl-2. As to conditions: TR-FRET Ki values. Put shortly: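 Ki values come from Wang's competitive-binding equation applied to TR-FRET signal (excitation 340/35 nm; emission 520/525 nm F-Bak peptide, 495/510 nm Tb antibody). Protein, probe and antibody incubated with compound 3 h at room temperature; dilution series began at 50 μM as 2× stock in 10% DMSO.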
On the technique in general: Time-resolved FRET reads energy transfer from a long-lived donor to a nearby acceptor.

In the case of `CC1(C)CCC(CN2CCN(c3ccc(C(=O)NS(=O)(=O)c4ccc(NC5CCN(C6CCOCC6)CC5)c([N+](=O)[O-])c4)c(Oc4ccc5[nH]ccc5c4)c3)CC2)=C(c2ccc(Cl)cc2)C1` [Example 173, 4-(4-{[2-(4-chlorophenyl)-4,4-dimethylcyclohex-1-en-1-yl]methyl}piperazin-1-yl)-2-(1H-indol-5-yloxy)-N-({3-nitro-4-[(1-tetrahydro-2H-pyran-4-ylpiperidin-4-yl)amino]phenyl}sulfonyl)benzamide], the “Selectivity Ratio (Platelet EC50/FL5.12/Bcl-2 EC50)” value in assay [1] is listed as greater than 4587. Also, the “Binding selectivity ratio (Bcl-XL Ki/Bcl-2 Ki)” value (“Binding selectivity ratio” below) in assay [2] is listed as 204.6.

In the case of `O=C(NS(=O)(=O)c1ccc(NCC2CCOCC2)c([N+](=O)[O-])c1)c1ccc(N2CCN(Cc3ccccc3-c3ccc(Cl)cc3)CC2)cc1Oc1cccc2[nH]ccc12` [Example 45, 4-{4-[(4′-chloro-1,1′-biphenyl-2-yl)methyl]piperazin-1-yl}-2-(1H-indol-4-yloxy)-N-({3-nitro-4-[(tetrahydro-2H-pyran-4-ylmethyl)amino]phenyl}sulfonyl)benzamide], the “Selectivity Ratio (Platelet EC50/FL5.12/Bcl-2 EC50)” value in assay [1] was greater than 360. Also, in assay [2], the “Binding selectivity ratio” value is recorded as greater than 797.1.

In the case of `CN(C)CCCNc1ccc(S(=O)(=O)NC(=O)c2ccc(N3CCN(CC4=C(c5ccc(Cl)cc5)CC(C)(C)CC4)CC3)cc2Oc2ccc3[nH]ccc3c2)cc1[N+](=O)[O-]` [Example 53, 4-(4-{[2-(4-chlorophenyl)-4,4-dimethylcyclohex-1-en-1-yl]methyl}piperazin-1-yl)-N-[(4-{[3-(dimethylamino)propyl]amino}-3-nitrophenyl)sulfonyl]-2-(1H-indol-5-yloxy)benzamide], in assay [1], the “Selectivity Ratio (Platelet EC50/FL5.12/Bcl-2 EC50)” value was 1697. Moreover, in assay [2], the “Binding selectivity ratio” value is recorded as 59.8.

For the molecule `CC1(C)CCC(c2ccc(Cl)cc2)=C(CN2CCN(c3ccc(C(=O)NS(=O)(=O)c4ccc(NCCCN5CCOCC5)c([N+](=O)[O-])c4)c(Oc4cccc5[nH]ccc45)c3)CC2)C1` [Example 54, 4-(4-{[2-(4-chlorophenyl)-5,5-dimethylcyclohex-1-en-1-yl]methyl}piperazin-1-yl)-2-(1H-indol-4-yloxy)-N-({4-[(3-morpholin-4-ylpropyl)amino]-3-nitrophenyl}sulfonyl)benzamide], the “Selectivity Ratio (Platelet EC50/FL5.12/Bcl-2 EC50)” value in assay [1] was greater than 785. In addition, the “Binding selectivity ratio” value in assay [2] was determined as 108.3.

In the case of `CC1(C)CCC(CN2CCN(c3ccc(C(=O)NS(=O)(=O)c4ccc(NCCCN5CCOCC5)c([N+](=O)[O-])c4)c(Oc4ccc5[nH]ccc5c4)c3)CC2)=C(c2ccc(Cl)cc2)C1` [Example 52, 4-(4-{[2-(4-chlorophenyl)-4,4-dimethylcyclohex-1-en-1-yl]methyl}piperazin-1-yl)-2-(1H-indol-5-yloxy)-N-({4-[(3-morpholin-4-ylpropyl)amino]-3-nitrophenyl}sulfonyl)benzamide], in assay [1], the “Selectivity Ratio (Platelet EC50/FL5.12/Bcl-2 EC50)” value is on record as greater than 3164. Besides, the “Binding selectivity ratio” value in assay [2] was 333.9.

For the molecule `CN1CCC(Nc2ccc(S(=O)(=O)NC(=O)c3ccc(N4CCN(CC5=C(c6ccc(Cl)cc6)CC(C)(C)OC5)CC4)cc3Oc3ccc4[nH]ccc4c3)cc2[N+](=O)[O-])CC1` [Example 150, 4-(4-{[4-(4-chlorophenyl)-6,6-dimethyl-5,6-dihydro-2H-pyran-3-yl]methyl}piperazin-1-yl)-2-(1H-indol-5-yloxy)-N-({4-[(1-methylpiperidin-4-yl)amino]-3-nitrophenyl}sulfonyl)benzamide], the “Selectivity Ratio (Platelet EC50/FL5.12/Bcl-2 EC50)” value in assay [1] was found to be 509. Besides, the “Binding selectivity ratio” value in assay [2] came out at 667.

In the case of `CC1(C)CCC(CN2CCN(c3ccc(C(=O)NS(=O)(=O)c4ccc(NCCCN5CCCC5)c([N+](=O)[O-])c4)c(Oc4cccc5[nH]ccc45)c3)CC2)=C(c2cccc(C(F)(F)F)c2)C1` [Example 71, 4-[4-({4,4-dimethyl-2-[3-(trifluoromethyl)phenyl]cyclohex-1-en-1-yl}methyl)piperazin-1-yl]-2-(1H-indol-4-yloxy)-N-({3-nitro-4-[(3-pyrrolidin-1-ylpropyl)amino]phenyl}sulfonyl)benzamide], the “Selectivity Ratio (Platelet EC50/FL5.12/Bcl-2 EC50)” value in assay [1] is recorded as greater than 107. Moreover, the “Binding selectivity ratio” value in assay [2] is on record as greater than 105.9.

Consider `O=C(NS(=O)(=O)c1ccc(NCC2CCOCC2)c([N+](=O)[O-])c1)c1ccc(N2CCN(Cc3cc(CN4CCCC4)ccc3-c3ccc(Cl)cc3)CC2)cc1Oc1cccc2[nH]ccc12` [Example 24, 4-(4-{[4′-chloro-4-(pyrrolidin-1-ylmethyl)-1,1′-biphenyl-2-yl]methyl}piperazin-1-yl)-2-(1H-indol-4-yloxy)-N-({3-nitro-4-[(tetrahydro-2H-pyran-4-ylmethyl)amino]phenyl}sulfonyl)benzamide], for which, in assay [1], the “Selectivity Ratio (Platelet EC50/FL5.12/Bcl-2 EC50)” value was greater than 906. For the same molecule, the “Binding selectivity ratio” value in assay [2] is on record as greater than 3402.1.

On to `CN1CCN(CCCNc2ccc(S(=O)(=O)NC(=O)c3ccc(N4CCN(CC5=C(c6ccc(Cl)cc6)CC(C)(C)CC5)CC4)cc3Oc3ccc4[nH]ccc4c3)cc2[N+](=O)[O-])CC1` [Example 96, 4-(4-{[2-(4-chlorophenyl)-4,4-dimethylcyclohex-1-en-1-yl]methyl}piperazin-1-yl)-2-(1H-indol-5-yloxy)-N-[(4-{[3-(4-methylpiperazin-1-yl)propyl]amino}-3-nitrophenyl)sulfonyl]benzamide], for which the “Selectivity Ratio (Platelet EC50/FL5.12/Bcl-2 EC50)” value in assay [1] is recorded as 2043. In addition, the “Binding selectivity ratio” value in assay [2] worked out at 186.8.

For `CN(C)CCCNc1ccc(S(=O)(=O)NC(=O)c2ccc(N3CCN(CC4=C(c5ccc(Cl)cc5)CC(C)(C)CC4)CC3)cc2Oc2ccc3[nH]ccc3c2)cc1S(=O)(=O)C(F)(F)F` [Example 170, 4-(4-{[2-(4-chlorophenyl)-4,4-dimethylcyclohex-1-en-1-yl]methyl}piperazin-1-yl)-N-({4-{[3-(dimethylamino)propyl]amino}-3-[(trifluoromethyl)sulfonyl]phenyl}sulfonyl)-2-(1H-indol-5-yloxy)benzamide], in assay [1], the “Selectivity Ratio (Platelet EC50/FL5.12/Bcl-2 EC50)” value was 507. Further, the “Binding selectivity ratio” value in assay [2] came out at 30.2.

For `CN1CCC(Nc2ccc(S(=O)(=O)NC(=O)c3ccc(N4CCN(CC5=C(c6ccc(Cl)cc6)CCCC5)CC4)cc3Oc3ccc4[nH]ccc4c3)cc2[N+](=O)[O-])CC1` [Example 75, 4-(4-{[2-(4-chlorophenyl)cyclohex-1-en-1-yl]methyl}piperazin-1-yl)-2-(1H-indol-5-yloxy)-N-({4-[(1-methylpiperidin-4-yl)amino]-3-nitrophenyl}sulfonyl)benzamide], the “Selectivity Ratio (Platelet EC50/FL5.12/Bcl-2 EC50)” value in assay [1] worked out at 821. Further, the “Binding selectivity ratio” value in assay [2] is reported as 852.2.

As to `CC(C)N(CCOc1ccc(-c2ccc(Cl)cc2)c(CN2CCN(c3ccc(C(=O)NS(=O)(=O)c4ccc(NCC5CCOCC5)c([N+](=O)[O-])c4)c(Oc4ccccc4)c3)CC2)c1)C(C)C` [Example 139, 4-[4-({4′-chloro-4-[2-(diisopropylamino)ethoxy]-1,1′-biphenyl-2-yl}methyl)piperazin-1-yl]-N-({3-nitro-4-[(tetrahydro-2H-pyran-4-ylmethyl)amino]phenyl}sulfonyl)-2-phenoxybenzamide], the “Selectivity Ratio (Platelet EC50/FL5.12/Bcl-2 EC50)” value in assay [1] is recorded as 841. For the same molecule, the “Binding selectivity ratio” value in assay [2] came to 103.1.

With `CN(C)CCCNc1ccc(S(=O)(=O)NC(=O)c2ccc(N3CCN(CC4=C(c5ccc(Cl)cc5)CC(C)(C)CC4)CC3)cc2Oc2ccc3[nH]ccc3c2)cc1C(F)(F)F` [Example 171, 4-(4-{[2-(4-chlorophenyl)-4,4-dimethylcyclohex-1-en-1-yl]methyl}piperazin-1-yl)-N-{[4-{[3-(dimethylamino)propyl]amino}-3-(trifluoromethyl)phenyl]sulfonyl}-2-(1H-indol-5-yloxy)benzamide], the “Selectivity Ratio (Platelet EC50/FL5.12/Bcl-2 EC50)” value in assay [1] is recorded as greater than 181. Moreover, the “Binding selectivity ratio” value in assay [2] was determined as 17.7.

On to `CN(C)CCOc1ccc(-c2ccc(Cl)cc2)c(CN2CCN(c3ccc(C(=O)NS(=O)(=O)c4ccc(NC5CCN(C)CC5)c([N+](=O)[O-])c4)c(Oc4ccccc4)c3)CC2)c1` [Example 133, 4-[4-({4′-chloro-4-[2-(dimethylamino)ethoxy]-1,1′-biphenyl-2-yl}methyl)piperazin-1-yl]-N-({4-[(1-methylpiperidin-4-yl)amino]-3-nitrophenyl}sulfonyl)-2-phenoxybenzamide], for which, in assay [1], the “Selectivity Ratio (Platelet EC50/FL5.12/Bcl-2 EC50)” value is 5. Besides, the “Binding selectivity ratio” value in assay [2] was determined as 31.2.

Consider `CN1CCC(CNc2ccc(S(=O)(=O)NC(=O)c3ccc(N4CCN(Cc5ccccc5-c5ccc(Cl)cc5)CC4)cc3Oc3ccccc3)cc2[N+](=O)[O-])CC1` [Example 88, 4-{4-[(4′-chloro-1,1′-biphenyl-2-yl)methyl]piperazin-1-yl}-N-[(4-{[(1-methylpiperidin-4-yl)methyl]amino}-3-nitrophenyl)sulfonyl]-2-phenoxybenzamide], for which the “Selectivity Ratio (Platelet EC50/FL5.12/Bcl-2 EC50)” value in assay [1] is on record as 613. In addition, the “Binding selectivity ratio” value in assay [2] was 67.3.

As for `O=C(NS(=O)(=O)c1ccc(NCC2CCOCC2)c([N+](=O)[O-])c1)c1ccc(N2CCN(Cc3c(OCCN4CCOCC4)cccc3-c3ccc(Cl)cc3)CC2)cc1Oc1cccc2[nH]ccc12` [Example 131, 4-(4-{[4′-chloro-3-(2-morpholin-4-ylethoxy)-1,1′-biphenyl-2-yl]methyl}piperazin-1-yl)-2-(1H-indol-4-yloxy)-N-({3-nitro-4-[(tetrahydro-2H-pyran-4-ylmethyl)amino]phenyl}sulfonyl)benzamide], the “Selectivity Ratio (Platelet EC50/FL5.12/Bcl-2 EC50)” value in assay [1] is given as greater than 1597. Moreover, the “Binding selectivity ratio” value in assay [2] came out at 2292.2.

`CC1(C)CCC(CN2CCN(c3ccc(C(=O)NS(=O)(=O)c4ccc(NCCCN5CCOCC5)c([N+](=O)[O-])c4)c(Oc4ccc5c(c4)CCCN5)c3)CC2)=C(c2ccc(Cl)cc2)C1` [Example 22, 4-(4-{[2-(4-chlorophenyl)-4,4-dimethylcyclohex-1-en-1-yl]methyl}piperazin-1-yl)-N-({4-[(3-morpholin-4-ylpropyl)amino]-3-nitrophenyl}sulfonyl)-2-(1,2,3,4-tetrahydroquinolin-6-yloxy)benzamide]: the “Selectivity Ratio (Platelet EC50/FL5.12/Bcl-2 EC50)” value in assay [1] was greater than 61. In addition, the “Binding selectivity ratio” value in assay [2] worked out at 20.2.
